Earlier results, collected in patent US20230048872A1, “COMPOSITIONS AND METHODS FOR DIAGNOSING OR TREATING NEUTROPHIL-MEDIATED INFLAMMATORY DISEASE” (THE BOARD OF TRUSTEES OF THE UNIVERSITY OF ILLINOIS, priority 2013, published 2023).

## Oc1cc(O)cc(/C=C/c2ccc(O)c(O)c2)c1 [Piceatannol, piceatannol]
  solubility in water: low
